Among the data in ChEMBL document CHEMBL1158794, “A cytotoxic xanthone dimer from the entomopathogenic fungus Aschersonia sp. BCC 8401” (J Nat Prod, 2005) are IC50 values, retold here.

Converted amounts (≈) assume the structure as drawn.

One experiment deals with Plasmodium falciparum. Kind of experiment: Antiplasmodial activity against multidrug-resistant Plasmodium falciparum K1 by [3H]hypoxanthine uptake. Type of experiment: functional, organism-based.
The next experiment deals with Vero. Kind of experiment: Cytotoxicity against african green monkey Vero cells by SRB assay. Format: cell-based. The settings on record: Chlorocebus sabaeus. For orientation: The SRB assay estimates cell density from bound dye.
Another experiment deals with KB. Kind of experiment: Cytotoxicity against human KB cells by SRB assay. Type of experiment: functional, cell-based.
Experiment [1] is described as follows: Cytotoxicity against human BC cells by SRB assay. Format: functional, cell-based.
The test system of the next experiment is NCI-H187. The experiment in a line: Cytotoxicity against human NCI-H187 cells by SRB assay. Type of experiment: functional, cell-based.

Broadly, the IC50 is the concentration that gives 50% inhibition.

Regarding `CO[C@H]1CC=C2C(=O)c3c(cc(C)c(-c4c(C)cc5c(c4O)C(=O)C4=CC[C@H](OC)[C@@H](O)[C@]4(C)O5)c3O)O[C@@]2(C)[C@@H]1O` [ASCHERXANTHONE A], the IC50 in the experiment with Plasmodium falciparum worked out at 0.2 µg/mL (≈ 0.346 µM); in the experiment with Vero it was 0.8 µg/mL (≈ 1.38 µM); in the experiment with KB it was 1.7 µg/mL (≈ 2.94 µM); in experiment [1], 1.7 µg/mL (≈ 2.94 µM); in the experiment with NCI-H187, 0.16 µg/mL (≈ 0.277 µM).
